The values below come from publication PMC9532562 (Acta Pharmaceutica Sinica. B, 2022).

Targets include HDAC4 (Homo sapiens, UniProt P56524); HDAC5 (Homo sapiens, UniProt Q9UQL6); HDAC3 (Homo sapiens, UniProt O15379); HDAC9 (Homo sapiens, UniProt Q9UKV0); HDAC2 (Homo sapiens, UniProt Q92769).
Common to all, as to assay: HDAC enzyme inhibition assay
Format in all cases: biochemical

In the next assay the target is T1, HDAC11 (Homo sapiens, UniProt Q96DB2).
T1 sequence (Q96DB2 1-347): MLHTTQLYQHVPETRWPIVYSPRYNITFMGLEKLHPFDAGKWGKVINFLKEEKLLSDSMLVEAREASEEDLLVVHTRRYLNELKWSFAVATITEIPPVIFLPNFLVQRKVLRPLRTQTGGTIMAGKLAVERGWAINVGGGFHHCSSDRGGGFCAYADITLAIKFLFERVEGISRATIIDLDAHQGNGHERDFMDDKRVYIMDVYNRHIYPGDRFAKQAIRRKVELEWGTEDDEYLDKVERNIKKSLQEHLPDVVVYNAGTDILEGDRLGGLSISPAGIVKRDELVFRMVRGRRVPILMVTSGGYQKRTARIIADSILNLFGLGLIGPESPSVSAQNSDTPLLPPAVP

A further assay addresses T2, HDAC6 (Homo sapiens, UniProt Q9UBN7).
T2 sequence (Q9UBN7 1-1215): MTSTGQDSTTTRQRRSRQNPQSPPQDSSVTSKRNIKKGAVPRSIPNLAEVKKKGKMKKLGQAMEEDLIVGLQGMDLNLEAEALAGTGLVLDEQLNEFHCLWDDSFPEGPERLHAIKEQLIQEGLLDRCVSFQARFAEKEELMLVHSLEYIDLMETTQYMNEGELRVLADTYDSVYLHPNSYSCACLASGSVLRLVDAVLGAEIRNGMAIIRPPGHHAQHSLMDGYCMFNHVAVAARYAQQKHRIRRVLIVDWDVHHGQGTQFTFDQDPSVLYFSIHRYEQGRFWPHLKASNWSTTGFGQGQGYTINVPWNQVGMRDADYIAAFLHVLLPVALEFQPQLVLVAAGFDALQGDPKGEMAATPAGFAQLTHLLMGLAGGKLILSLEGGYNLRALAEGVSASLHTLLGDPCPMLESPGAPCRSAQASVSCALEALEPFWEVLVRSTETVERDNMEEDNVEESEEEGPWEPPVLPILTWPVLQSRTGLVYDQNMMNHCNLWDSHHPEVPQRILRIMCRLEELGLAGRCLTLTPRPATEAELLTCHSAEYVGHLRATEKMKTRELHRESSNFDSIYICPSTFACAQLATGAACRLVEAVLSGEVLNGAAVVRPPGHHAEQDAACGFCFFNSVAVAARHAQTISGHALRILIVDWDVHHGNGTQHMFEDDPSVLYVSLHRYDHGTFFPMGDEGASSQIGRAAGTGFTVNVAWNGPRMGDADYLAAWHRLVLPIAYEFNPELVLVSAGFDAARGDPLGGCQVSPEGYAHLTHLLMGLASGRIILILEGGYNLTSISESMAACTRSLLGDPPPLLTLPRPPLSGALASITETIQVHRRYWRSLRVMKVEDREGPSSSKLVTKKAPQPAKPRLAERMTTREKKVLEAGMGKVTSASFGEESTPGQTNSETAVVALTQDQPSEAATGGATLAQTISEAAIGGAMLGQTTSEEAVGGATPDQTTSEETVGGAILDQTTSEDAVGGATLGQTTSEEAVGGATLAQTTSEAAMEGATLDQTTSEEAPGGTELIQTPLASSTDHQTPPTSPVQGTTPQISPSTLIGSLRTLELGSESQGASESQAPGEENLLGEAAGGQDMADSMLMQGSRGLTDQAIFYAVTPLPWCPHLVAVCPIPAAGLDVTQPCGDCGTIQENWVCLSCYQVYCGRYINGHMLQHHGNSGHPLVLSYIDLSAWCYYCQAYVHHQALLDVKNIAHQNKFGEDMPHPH

Another assay deals with T3, HDAC7 (Homo sapiens, UniProt Q8WUI4).
T3 sequence (Q8WUI4 1-952): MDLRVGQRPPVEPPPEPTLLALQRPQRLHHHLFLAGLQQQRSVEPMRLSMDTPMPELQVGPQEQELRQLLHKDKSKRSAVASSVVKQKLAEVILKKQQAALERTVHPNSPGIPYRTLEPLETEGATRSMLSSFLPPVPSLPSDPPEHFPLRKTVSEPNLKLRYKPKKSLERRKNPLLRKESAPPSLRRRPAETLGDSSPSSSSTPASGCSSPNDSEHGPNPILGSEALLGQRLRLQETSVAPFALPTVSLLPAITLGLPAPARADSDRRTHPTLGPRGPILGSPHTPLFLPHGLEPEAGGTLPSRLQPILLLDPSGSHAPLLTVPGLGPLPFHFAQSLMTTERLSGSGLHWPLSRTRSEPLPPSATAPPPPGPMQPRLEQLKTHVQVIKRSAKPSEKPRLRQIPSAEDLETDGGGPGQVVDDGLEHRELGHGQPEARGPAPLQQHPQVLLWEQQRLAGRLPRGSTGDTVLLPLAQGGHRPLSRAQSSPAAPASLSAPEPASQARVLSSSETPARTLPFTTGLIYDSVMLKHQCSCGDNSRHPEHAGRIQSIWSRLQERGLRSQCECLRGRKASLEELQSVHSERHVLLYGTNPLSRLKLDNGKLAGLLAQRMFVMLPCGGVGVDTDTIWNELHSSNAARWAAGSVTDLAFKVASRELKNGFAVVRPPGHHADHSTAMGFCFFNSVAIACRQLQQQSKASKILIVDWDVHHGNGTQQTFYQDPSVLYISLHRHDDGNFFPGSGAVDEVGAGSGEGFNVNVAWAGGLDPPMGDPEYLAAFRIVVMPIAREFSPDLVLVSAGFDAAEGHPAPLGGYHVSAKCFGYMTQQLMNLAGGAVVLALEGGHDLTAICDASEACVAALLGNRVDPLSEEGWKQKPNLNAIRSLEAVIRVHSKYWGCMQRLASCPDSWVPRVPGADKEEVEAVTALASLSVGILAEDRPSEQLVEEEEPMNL

SMILES strings stand for the structures.

As a reminder, the IC50 is the midpoint of a concentration-inhibition curve. A high value points to a need for much substance.

HDAC4, sequence (P56524 whole entry): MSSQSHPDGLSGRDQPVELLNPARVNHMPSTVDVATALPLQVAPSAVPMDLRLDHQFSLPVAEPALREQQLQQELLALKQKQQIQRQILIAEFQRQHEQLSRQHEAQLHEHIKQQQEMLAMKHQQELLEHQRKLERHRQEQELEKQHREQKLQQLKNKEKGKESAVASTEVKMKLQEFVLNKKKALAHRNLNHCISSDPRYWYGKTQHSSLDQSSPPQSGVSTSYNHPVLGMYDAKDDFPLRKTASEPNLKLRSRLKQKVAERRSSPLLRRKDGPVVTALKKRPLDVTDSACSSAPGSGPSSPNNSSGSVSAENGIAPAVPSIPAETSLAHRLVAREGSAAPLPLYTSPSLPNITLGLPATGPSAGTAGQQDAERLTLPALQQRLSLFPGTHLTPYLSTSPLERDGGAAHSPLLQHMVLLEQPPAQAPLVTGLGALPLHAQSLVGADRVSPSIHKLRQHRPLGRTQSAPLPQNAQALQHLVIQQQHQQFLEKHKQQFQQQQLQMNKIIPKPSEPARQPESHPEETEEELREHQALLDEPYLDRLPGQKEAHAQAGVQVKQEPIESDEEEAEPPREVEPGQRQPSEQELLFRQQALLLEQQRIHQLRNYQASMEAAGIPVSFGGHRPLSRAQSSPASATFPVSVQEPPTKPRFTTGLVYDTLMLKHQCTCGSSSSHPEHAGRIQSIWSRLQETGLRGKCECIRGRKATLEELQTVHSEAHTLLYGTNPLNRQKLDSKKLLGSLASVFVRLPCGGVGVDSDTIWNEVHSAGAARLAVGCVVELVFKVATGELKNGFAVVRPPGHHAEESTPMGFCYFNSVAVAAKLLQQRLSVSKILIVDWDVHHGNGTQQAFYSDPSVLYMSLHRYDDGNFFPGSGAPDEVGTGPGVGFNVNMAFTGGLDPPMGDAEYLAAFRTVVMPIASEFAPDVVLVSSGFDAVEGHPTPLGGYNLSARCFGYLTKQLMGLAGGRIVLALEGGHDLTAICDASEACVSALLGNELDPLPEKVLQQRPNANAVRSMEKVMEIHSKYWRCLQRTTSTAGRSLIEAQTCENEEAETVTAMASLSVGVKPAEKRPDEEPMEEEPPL
HDAC2, sequence (Q92769 whole entry): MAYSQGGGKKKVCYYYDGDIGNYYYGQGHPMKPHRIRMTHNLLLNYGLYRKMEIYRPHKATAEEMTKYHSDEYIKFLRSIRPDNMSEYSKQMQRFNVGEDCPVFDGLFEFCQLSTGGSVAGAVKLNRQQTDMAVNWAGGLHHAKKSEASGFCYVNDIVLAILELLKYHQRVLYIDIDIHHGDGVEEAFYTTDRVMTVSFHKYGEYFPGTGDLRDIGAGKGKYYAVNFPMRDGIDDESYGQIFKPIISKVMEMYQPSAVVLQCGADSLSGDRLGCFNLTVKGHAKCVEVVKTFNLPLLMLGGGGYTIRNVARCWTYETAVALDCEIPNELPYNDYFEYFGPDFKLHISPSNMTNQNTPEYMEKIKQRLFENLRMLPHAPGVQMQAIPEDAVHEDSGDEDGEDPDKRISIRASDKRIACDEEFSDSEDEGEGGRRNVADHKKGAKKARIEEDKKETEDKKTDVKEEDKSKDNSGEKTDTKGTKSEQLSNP
HDAC3, sequence (O15379 whole entry): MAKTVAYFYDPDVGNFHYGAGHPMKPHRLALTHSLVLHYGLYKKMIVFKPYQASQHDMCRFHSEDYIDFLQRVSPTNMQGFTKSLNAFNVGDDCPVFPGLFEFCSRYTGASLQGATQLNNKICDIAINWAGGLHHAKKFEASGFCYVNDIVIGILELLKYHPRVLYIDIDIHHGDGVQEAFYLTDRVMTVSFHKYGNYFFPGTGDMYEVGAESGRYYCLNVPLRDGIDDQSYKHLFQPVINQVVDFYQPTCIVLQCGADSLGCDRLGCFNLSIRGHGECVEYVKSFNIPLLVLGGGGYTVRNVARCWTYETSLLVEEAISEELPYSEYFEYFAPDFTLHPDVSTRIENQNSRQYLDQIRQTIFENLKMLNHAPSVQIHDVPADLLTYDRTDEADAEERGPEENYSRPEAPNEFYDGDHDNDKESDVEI
HDAC3, sequence (Q9Y618 395-489 partner limits assumed): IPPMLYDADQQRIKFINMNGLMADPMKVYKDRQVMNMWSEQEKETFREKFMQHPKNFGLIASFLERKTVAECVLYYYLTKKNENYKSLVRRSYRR
HDAC9, sequence (Q9UKV0 whole entry): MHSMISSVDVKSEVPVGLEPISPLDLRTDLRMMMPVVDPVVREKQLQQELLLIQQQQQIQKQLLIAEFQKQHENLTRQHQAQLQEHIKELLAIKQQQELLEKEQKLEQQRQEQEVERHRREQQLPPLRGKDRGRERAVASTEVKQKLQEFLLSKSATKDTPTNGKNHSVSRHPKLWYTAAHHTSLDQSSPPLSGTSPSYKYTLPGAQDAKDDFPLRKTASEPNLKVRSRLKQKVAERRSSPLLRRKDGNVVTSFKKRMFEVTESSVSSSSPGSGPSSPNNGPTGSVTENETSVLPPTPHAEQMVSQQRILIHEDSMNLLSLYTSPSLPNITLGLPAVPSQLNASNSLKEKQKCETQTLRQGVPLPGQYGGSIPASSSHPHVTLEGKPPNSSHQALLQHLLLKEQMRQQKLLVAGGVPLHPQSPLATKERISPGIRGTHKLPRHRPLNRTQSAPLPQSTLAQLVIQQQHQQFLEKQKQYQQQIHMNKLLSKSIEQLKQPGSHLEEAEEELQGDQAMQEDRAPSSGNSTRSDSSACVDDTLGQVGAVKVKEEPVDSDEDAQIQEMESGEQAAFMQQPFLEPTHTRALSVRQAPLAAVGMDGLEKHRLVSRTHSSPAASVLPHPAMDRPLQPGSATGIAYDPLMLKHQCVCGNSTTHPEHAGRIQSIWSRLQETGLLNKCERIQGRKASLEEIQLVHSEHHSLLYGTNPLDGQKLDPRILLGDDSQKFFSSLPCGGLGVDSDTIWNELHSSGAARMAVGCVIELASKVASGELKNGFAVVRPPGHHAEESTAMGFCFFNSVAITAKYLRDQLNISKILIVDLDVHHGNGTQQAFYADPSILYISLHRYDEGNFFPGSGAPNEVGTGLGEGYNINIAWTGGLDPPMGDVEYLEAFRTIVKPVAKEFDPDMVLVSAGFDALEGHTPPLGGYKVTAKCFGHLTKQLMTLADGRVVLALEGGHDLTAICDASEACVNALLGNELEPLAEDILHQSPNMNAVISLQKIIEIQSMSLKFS
HDAC5, sequence (Q9UQL6 whole entry): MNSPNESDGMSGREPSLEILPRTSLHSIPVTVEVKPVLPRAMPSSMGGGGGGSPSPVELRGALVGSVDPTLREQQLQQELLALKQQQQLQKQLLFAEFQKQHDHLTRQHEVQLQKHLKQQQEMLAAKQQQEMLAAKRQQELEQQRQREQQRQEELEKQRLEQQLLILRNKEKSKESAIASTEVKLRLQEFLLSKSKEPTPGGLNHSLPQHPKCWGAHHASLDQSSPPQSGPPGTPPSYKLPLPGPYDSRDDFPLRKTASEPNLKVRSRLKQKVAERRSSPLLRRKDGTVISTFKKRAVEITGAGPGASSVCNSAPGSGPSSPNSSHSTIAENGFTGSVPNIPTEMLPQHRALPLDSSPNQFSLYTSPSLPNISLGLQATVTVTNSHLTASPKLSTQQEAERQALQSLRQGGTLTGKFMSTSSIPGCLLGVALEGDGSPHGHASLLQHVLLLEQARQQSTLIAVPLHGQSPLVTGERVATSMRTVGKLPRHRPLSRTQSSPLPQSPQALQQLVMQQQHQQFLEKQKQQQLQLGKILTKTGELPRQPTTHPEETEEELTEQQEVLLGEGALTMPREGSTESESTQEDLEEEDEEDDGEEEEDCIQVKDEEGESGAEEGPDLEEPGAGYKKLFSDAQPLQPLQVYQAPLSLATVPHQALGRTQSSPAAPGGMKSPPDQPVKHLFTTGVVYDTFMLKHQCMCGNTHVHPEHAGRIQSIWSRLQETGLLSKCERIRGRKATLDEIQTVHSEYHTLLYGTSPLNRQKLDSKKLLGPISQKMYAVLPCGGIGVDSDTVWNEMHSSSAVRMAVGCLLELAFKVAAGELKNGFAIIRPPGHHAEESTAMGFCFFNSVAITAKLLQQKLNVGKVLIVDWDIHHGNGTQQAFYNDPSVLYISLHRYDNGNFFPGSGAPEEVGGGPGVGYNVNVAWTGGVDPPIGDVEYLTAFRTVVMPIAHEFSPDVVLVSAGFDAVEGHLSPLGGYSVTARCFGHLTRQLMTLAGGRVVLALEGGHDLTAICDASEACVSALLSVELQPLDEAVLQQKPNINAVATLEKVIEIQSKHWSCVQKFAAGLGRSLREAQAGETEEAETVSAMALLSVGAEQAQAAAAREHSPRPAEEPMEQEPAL

As for `COc1cc(C(=O)NO)ccc1CN1CCCCc2ccccc21` [15a, N-Hydroxy-3-methoxy-4-((2,3,4,5-tetrahydro-1H-benzo[b]azepin-1-yl)methyl)benzamide], the IC50 was more than 10 µM at HDAC4; more than 10 µM against HDAC5; more than 10 µM against HDAC3; more than 10 µM on HDAC9; more than 10 µM against HDAC2; 9.52 µM at HDAC11. Further, the IC50 at HDAC6 is 6.46 µM; against HDAC7 it was more than 10 µM.

As to `O=C(NO)c1ccc(CN2CCCCc3ccccc32)c(F)c1` [15c, 3-Fluoro-N-hydroxy-4-((2,3,4,5-tetrahydro-1H-benzo[b]azepin-1-yl)methyl)benzamide], the IC50 against HDAC4 is 2.12 µM; at HDAC5, 2.44 µM; on HDAC3, 2.96 µM; at HDAC9 it was 3.15 µM; against HDAC2, more than 10 µM; against HDAC11 it was 4.38 µM. Further, the IC50 against HDAC6 stood at 0.0052 µM; against HDAC7, 0.609 µM. For the same compound, the “selectivity for HDAC6 over other HDAC isoforms” value on HDAC6 (HDAC6 vs other HDAC isoforms) is recorded as more than 119 fold.

As for `O=C(NO)c1ccc(CN2CCCCc3ccccc32)cc1F` [15d, 2-Fluoro-N-hydroxy-4-((2,3,4,5-tetrahydro-1H-benzo[b]azepin-1-yl)methyl)benzamide], the IC50 against HDAC4 was 3.56 µM; against HDAC5 it was more than 10 µM; against HDAC3 it was 2.46 µM; against HDAC9 it was more than 10 µM; against HDAC2, more than 10 µM; against HDAC11, 5.42 µM. Besides, the IC50 on HDAC6 was 0.0251 µM; on HDAC7, 3.02 µM.
